In test [1] the target is GDP-bound NRAS wild-type protein (Homo sapiens, UniProt P01111). The experiment in a line: Binding to NRAS by surface plasmon resonance (SPR), KD and KD ratio to KRAS. The following applies: ratio of the KD value with respect to GDP-bound NRAS wild-type protein to the KD value with respect to KRAS. The method, boiled down:
(§1)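 Biotinylated GDP-bound RAS was captured at about 100–300 RU. Running buffer: HBS pH 7.4, 10 mM MgCl2, 10 µM GDP, 1 mM DTT, 0.01% Tween 20, 4% DMSO.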

For the next test, the target named is HRAS wild-type protein (Homo sapiens, UniProt P01112). The experiment in a line: Binding to HRAS by surface plasmon resonance (SPR), KD and KD ratio to KRAS. The following applies: ratio of the KD value with respect to HRAS wild-type protein to the KD value with respect to KRAS. The method, boiled down:
as §1

Test [2] deals with human lung cancer strain NCI-H441. It counts as cell-based. The method, boiled down:
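Step one: dispense the test compound in serial DMSO dilutions. Step three: add the reagent and measure […].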

Molecules are shown by their SMILES. pIC50: −log10 of the molar value. *1 amine or outer side, *2 acyl side, *3 side chain or, on linkers, in order; H or OH if unused. Where a SMILES comes first, the peptide text is derived from it. Bridges are numbered along the chain shown (N, C = ends). [ ]: non-standard residue; d: D form. The star is where a group is joined. ξ: configuration not given here. hPhe(3-Cl-4-CF3) = N[C@@H](CCc1ccc(C(F)(F)F)c(Cl)c1)C(=O)O; X31 = C=CCN([C@@H](Cc1ccccc1)C(=O)[*:2])[*:1]; NMeGly(cPent) = CN[C@H](C(=O)O)C1CCCC1; NMeNle(5-ene) = C=CCC[C@H](NC)C(=O)O; dIle(3ξ) = CCC(C)[C@@H](N)C(=O)O; NMeD = CN[C@@H](CC(=O)O)C(=O)O; NMeL = CN[C@@H](CC(C)C)C(=O)O; Morpholide = C1CN(*)CCO1; Ac5c = NC1(C(=O)O)CCCC1; Sar = CNCC(=O)O

Chain of HRAS wild-type protein (P01112 whole entry): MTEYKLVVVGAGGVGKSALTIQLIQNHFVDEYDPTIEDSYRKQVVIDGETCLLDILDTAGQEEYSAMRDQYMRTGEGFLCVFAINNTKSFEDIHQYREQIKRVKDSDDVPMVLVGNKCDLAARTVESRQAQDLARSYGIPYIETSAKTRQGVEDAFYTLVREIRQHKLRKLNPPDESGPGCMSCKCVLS
Chain of GDP-bound NRAS wild-type protein (P01111 whole entry): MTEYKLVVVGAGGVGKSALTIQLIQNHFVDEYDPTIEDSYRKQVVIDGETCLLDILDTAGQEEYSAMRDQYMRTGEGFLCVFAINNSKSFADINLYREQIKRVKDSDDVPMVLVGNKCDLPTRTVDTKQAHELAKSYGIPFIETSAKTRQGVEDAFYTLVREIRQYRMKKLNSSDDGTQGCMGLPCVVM

In the case of `CCO[C@@H]1C[C@H]2C(=O)NC3(CCC3)C(=O)N(C)[C@@H](C3CCCC3)C(=O)N(C)[C@H](C(=O)N(C)C)CC(=O)N(C)[C@@H](C)C(=O)N[C@@H]([C@@H](C)CC)C(=O)N(C)CC(=O)N(C)[C@H]3CCCCN(C3=O)[C@@H](Cc3ccc(C(F)(F)F)cc3)C(=O)N(C)CC(=O)N[C@@H](CCc3cc(F)c(C(F)(F)F)c(F)c3)C(=O)N2C1` [PP0587], the “NRAS /KRAS” value in test [1] is “C (A compound having a KD ratio of 0.1 or more and less than 3 is denoted as C)”. Besides, the “HRAS /KRAS” value on HRAS wild-type protein was “C (A compound having a KD ratio of 0.1 or more and less than 3 is denoted as C)”. The compound also had a negative-log IC50 (pIC50) in test [2] of 8.29.

Consider `CC[C@H](C)[C@@H]1NC(=O)[C@H](CC(C)C)N(CC)C(=O)C[C@@H](C(=O)N2CCOCC2)N(C)C(=O)[C@H](C2CCCC2)N(C)C(=O)C2(CCCC2)NC(=O)[C@@H]2CCCN2C(=O)[C@H](CCc2cc(F)c(C(F)(F)F)c(F)c2)NC(=O)CN(C)C(=O)[C@H](Cc2ccc(C(F)(F)F)cc2)N2CCCC[C@@H](C2=O)N(C)C(=O)CN(C)C1=O` [PP0588], for which, in test [1], the “NRAS /KRAS” value was “B (a compound having 3 or more and less than 10 is denoted as B)”. The “HRAS /KRAS” value at HRAS wild-type protein was “B (a compound having 3 or more and less than 10 is denoted as B)”. For the same compound, in test [2], the pIC50 is 7.78.

Consider `CC[C@H](C)[C@@H]1NC(=O)[C@H](CC(C)C)N(C)C(=O)C[C@@H](C(=O)N2CCOCC2)N(C)C(=O)[C@H](C2CCCC2)N(C)C(=O)C2(CCCC2)NC(=O)[C@H](C)N(CC)C(=O)[C@H](CCc2cc(F)c(C(F)(F)F)c(F)c2)NC(=O)CN(C)C(=O)[C@H](Cc2ccc(C(F)(F)F)cc2)N2CCCC[C@@H](C2=O)N(C)C(=O)CN(C)C1=O` [PP0589], for which, in test [1], the “NRAS /KRAS” value is “B (a compound having 3 or more and less than 10 is denoted as B)”. Also, on HRAS wild-type protein, the “HRAS /KRAS” value was “B (a compound having 3 or more and less than 10 is denoted as B)”. Besides, in test [2], the negative logarithm of the IC50 (pIC50) was 7.61.

As to `CC[C@H](C)[C@@H]1NC(=O)[C@H](CC(C)C)NC(=O)C[C@@H](C(=O)N2CCOCC2)N(C)C(=O)[C@H](C2CCCC2)N(C)C(=O)C2(CCCC2)NC(=O)[C@@H]2CCCN2C(=O)[C@H](CCc2cc(F)c(C(F)(F)F)c(F)c2)NC(=O)CN(C)C(=O)[C@H](Cc2ccc(C(F)(F)F)cc2)N2CCCC[C@@H](C2=O)N(C)C(=O)CN(C)C1=O` [PP0590], in test [1], the “NRAS /KRAS” value is “C (A compound having a KD ratio of 0.1 or more and less than 3 is denoted as C)”. The “HRAS /KRAS” value on HRAS wild-type protein was “B (a compound having 3 or more and less than 10 is denoted as B)”. In test [2], this compound had a pIC50 of 7.68.

Turning to `CC[C@H](C)[C@@H]1NC(=O)[C@H](CC(F)(F)F)N(C)C(=O)C[C@@H](C(=O)N2CCOCC2)N(C)C(=O)[C@H](C2CCCC2)N(C)C(=O)C2(CCCC2)NC(=O)[C@@H]2CCCN2C(=O)[C@H](CCc2cc(F)c(C(F)(F)F)c(F)c2)NC(=O)CN(C)C(=O)[C@H](Cc2ccc(C(F)(F)F)cc2)N2CCCC[C@@H](C2=O)N(C)C(=O)CN(C)C1=O` [PP0594], the “NRAS /KRAS” value in test [1] was “C (A compound having a KD ratio of 0.1 or more and less than 3 is denoted as C)”. Besides, at HRAS wild-type protein, the “HRAS /KRAS” value is “B (a compound having 3 or more and less than 10 is denoted as B)”. Also, in test [2], the pIC50 was 8.60.

On to `CC(C)C[C@H]1C(=O)N[C@@H](C2CCC2)C(=O)N(C)CC(=O)N(C)[C@H]2CCCCN(C2=O)[C@@H](Cc2ccc(C(F)(F)F)cc2)C(=O)N(C)CC(=O)N[C@@H](CCc2cc(F)c(C(F)(F)F)c(F)c2)C(=O)N2CCC[C@H]2C(=O)NC2(CCCC2)C(=O)N(C)[C@@H](C2CCCC2)C(=O)N(C)[C@H](C(=O)N2CCOCC2)CC(=O)N1C` [PP0596], for which, in test [1], the “NRAS /KRAS” value is “B (a compound having 3 or more and less than 10 is denoted as B)”. Moreover, the “HRAS /KRAS” value on HRAS wild-type protein was “B (a compound having 3 or more and less than 10 is denoted as B)”. The compound further gave a negative-log IC50 (pIC50) in test [2] of 8.08.

With `CCC(CC)[C@@H]1NC(=O)[C@H](CC(C)C)N(C)C(=O)C[C@@H](C(=O)N2CCOCC2)N(C)C(=O)[C@H](C2CCCC2)N(C)C(=O)C2(CCCC2)NC(=O)[C@@H]2CCCN2C(=O)[C@H](CCc2cc(F)c(C(F)(F)F)c(F)c2)NC(=O)CN(C)C(=O)[C@H](Cc2ccc(C(F)(F)F)cc2)N2CCCC[C@@H](C2=O)N(C)C(=O)CN(C)C1=O` [PP0597], in test [1], the “NRAS /KRAS” value was “B (a compound having 3 or more and less than 10 is denoted as B)”. Also, at HRAS wild-type protein, the “HRAS /KRAS” value was “B (a compound having 3 or more and less than 10 is denoted as B)”. In addition, in test [2], the pIC50 is 7.74.

As to `C=CCC[C@H]1C(=O)N(CC=C)[C@@H](Cc2ccccc2)C(=O)N(C)CC(=O)N[C@@H](CCc2ccc(C(F)(F)F)c(Cl)c2)C(=O)N2CCC[C@H]2C(=O)NC2(CCCC2)C(=O)N(C)[C@@H](C2CCCC2)C(=O)N(C)[C@H](C(=O)N2CCOCC2)CC(=O)N(C)[C@@H](CC(C)C)C(=O)N[C@H](C(C)CC)C(=O)N(C)CC(=O)N1C` (stereo partly drawn) [PP0599] ([NMeL][dIle(3ξ)][Sar][NMeNle(5-ene)][X31][Sar][hPhe(3-Cl-4-CF3)]P[Ac5c][NMeGly(cPent)][NMeD]-Morpholide; lactam N-11), the “NRAS /KRAS” value in test [1] was “C (A compound having a KD ratio of 0.1 or more and less than 3 is denoted as C)”. Besides, the “HRAS /KRAS” value on HRAS wild-type protein was “B (a compound having 3 or more and less than 10 is denoted as B)”. The pIC50 in test [2] was 5.55.

Regarding `CC[C@H](C)[C@@H]1NC(=O)[C@H](CC(C)C)N(C)C(=O)C[C@@H](C(=O)N2CCOCC2)N(C)C(=O)[C@H](C2CCCC2)N(C)C(=O)C2(CCCC2)NC(=O)[C@@H]2CCCN2C(=O)[C@H](CCc2ccc(C(F)(F)F)c(Cl)c2)NC(=O)CN(C)C(=O)[C@H](Cc2ccc(Cl)cc2)N2C/C=C\CC[C@@H](C2=O)N(C)C(=O)CN(C)C1=O` [PP0608], in test [1], the “NRAS /KRAS” value was “C (A compound having a KD ratio of 0.1 or more and less than 3 is denoted as C)”. The “HRAS /KRAS” value at HRAS wild-type protein was “B (a compound having 3 or more and less than 10 is denoted as B)”. Also, in test [2], the negative-log IC50 (pIC50) was 6.60.

In the case of `CC[C@H](C)[C@@H]1NC(=O)[C@H](CC(C)C)N(C)C(=O)C[C@@H](C(=O)N2CCOCC2)N(C)C(=O)[C@H](C2CCCC2)N(C)C(=O)C2(CCCC2)NC(=O)[C@@H]2CCCN2C(=O)[C@H](CCc2ccc(C(F)(F)F)c(Cl)c2)NC(=O)CN(C)C(=O)[C@H](Cc2ccc(OC(F)(F)F)cc2)N2C/C=C\CC[C@@H](C2=O)N(C)C(=O)CN(C)C1=O` [PP0610], the “NRAS /KRAS” value in test [1] was “B (a compound having 3 or more and less than 10 is denoted as B)”. Further, the “HRAS /KRAS” value at HRAS wild-type protein is “B (a compound having 3 or more and less than 10 is denoted as B)”. In test [2], this compound had a pIC50 of 6.16.

For `CC[C@H](C)[C@@H]1NC(=O)[C@H](CC(C)C)N(C)C(=O)C[C@@H](C(=O)N2CCOCC2)N(C)C(=O)[C@H](C2CCCC2)N(C)C(=O)C2(CCCC2)NC(=O)[C@@H]2CCCN2C(=O)[C@H](CCc2ccc(C(F)(F)F)c(Cl)c2)NC(=O)CN(C)C(=O)[C@H](Cc2ccc(F)cc2)N2CCCCC[C@@H](C2=O)N(C)C(=O)CN(C)C1=O` [PP0612], in test [1], the “NRAS /KRAS” value was “B (a compound having 3 or more and less than 10 is denoted as B)”. Further, at HRAS wild-type protein, the “HRAS /KRAS” value was “B (a compound having 3 or more and less than 10 is denoted as B)”. In test [2], the negative-log IC50 (pIC50) was 7.36.

The record behind these values is patent EP4603105A1, “PHARMACEUTICAL COMPOSITION CONTAINING CYCLIC COMPOUND HAVING SELECTIVE KRAS INHIBITORY EFFECT AGAINST HRAS AND NRAS” (CHUGAI SEIYAKU KABUSHIKI KAISHA, priority 2022, dated 2024).
